Values joined by “and” are separate entries in the source; they are usually repeats but may differ in a detail not shown here. Equal values may be shown once. “Also recorded” adds a separate entry of the source. Read-outs that look alike come from different tables or passages of the source.
Tests used:
[1] = tested on: HCT116 (colorectal carcinoma cell line); assay: MTS cell viability assay, HCT116; format: cell-based, human; conditions: 48 h of exposure, mean ± SEM
[2] = tested on: A2780 (ovarian carcinoma cell line); assay: MTS cell viability assay, A2780; format: cell-based, human; conditions: 48 h of exposure, mean ± SEM
HCT116-DoxR spheroids = assay: MTS assay in 3D spheroids; format: cell-based, human; conditions: HCT116-DoxR spheroids 6- to 8-day-old, 48 h
HCT116-DoxR cells [3] = assay: Cell internalization by ICP-AES; format: cell-based, human; conditions: 3 h exposure to 10x IC50, ICP-AES
HCT116-DoxR cells [4] = assay: Alexa Fluor 488-annexin V/PI apoptosis assay, flow cytometry; format: cell-based, human; conditions: 48 h; for increase of percentage of apoptotic cells normalized to DMSO: IC50; for early apoptosis / late apoptosis / necrosis / percentage of apoptosis (total) / viable cells: complexes at IC50, cisplatin 5 μM, Dox 6 μM
BAX = assay: Western blot, BAX expression; format: cell-based, human; conditions: HCT116-DoxR, 48 h; for BAX/BCL-2 ratio normalized to DMSO control: IC50; for BAX protein expression vs DMSO control: IC50, normalized to β-actin
BCL-2 = assay: Western blot, BCL-2 expression; format: cell-based, human; conditions: HCT116-DoxR, 48 h, IC50, normalized to β-actin
cleaved PARP1 = assay: Western blot, cleaved PARP1 expression; format: cell-based, human; conditions: HCT116-DoxR, 48 h, IC50
caspase-8 = assay: Caspase-8 activity, IETD-pNA cleavage; format: cell-based, human; conditions: HCT116-DoxR, 48 h; complexes at IC50, cisplatin 5 μM
Procedure: Since caspase-8 is an initiator caspase of the extrinsic apoptotic pathway, its activity was evaluated after HCT116-DoxR cells were exposed to complexes 5 and 8 (Figure 8).
The chromogenic substrate IETD-pNA, which results from the conjugation between the peptide IETD (Ile-Glu-Thr-Asp) and the chromophore p-nitroanilide (pNA), is cleaved by caspase-8 and releases pNA, which can be detected by measuring absorbance at 400 nm.[99] Therefore, if complexes 5 and 8 induce cell death through the extrinsic apoptotic pathway, there is an increase in absorbance at 400 nm compared to the control sample, corresponding to an increase in caspase-8 activity that is translated into the cleavage of the substrate IETD-pNA (Figure 8).
(§1) Antibody; Cell Signalling Technology, USA).
(§2) Assay Kit (Abnova Corporation, Walnut, CA, USA).
(§3) vanadium complexes at its IC50 concentrations.
(§4) Cells were then incubated
(§5) Flow Cytometer (Life Technologies, Carlsbad, USA).
(§6) HCT116-DoxR cell line was cultivated

HCT116-DoxR cells [5] = assay: ROS production, H2DCF-DA, flow cytometry; format: cell-based, human; conditions: 48 h, IC50
Procedure: Thus, the level of ROS present in HCT116-DoxR cells after their exposure to vanadium complexes was quantified (Figure 10). The probe 2′,7′-dichlorohydrofluorescein diacetate (H2DCF-DA), which diffuses into cells and is deacetylated by cellular esterases resulting in a nonfluorescent compound, was used. Inside the cell, this molecule is oxidized by ROS and then originates the fluorescent molecule 2′,7′-dichlorofluorescein (DCF) that can be detected by flow cytometry.[103]
(§7) finishing the 48 h period.
(§8) Attune® Cytometric software.
(§9) Butyl hydroperoxide) were used as controls.
(§10) Cells were later analysed
(§11) (double thymidine block).
(§12) After this, the pellet was resuspended in
Control solutions were also prepared, namely a […]

[6] = biological target: T1, BSA (bovine serum albumin) (Bos taurus, UniProt P02769); assay: BSA binding, UV-vis and fluorescence spectroscopy; conditions: for BSA fluorescence with increasing complex concentrations: BSA 20 μM, complexes 10-100 μM, pH 7.0, 24 h, 37 °C; for interaction with BSA protein: UV-vis and fluorescence spectroscopy
T1 construct: I (1–195), II (196–383), and III (384–583)
T1 sequence (P02769 25-607): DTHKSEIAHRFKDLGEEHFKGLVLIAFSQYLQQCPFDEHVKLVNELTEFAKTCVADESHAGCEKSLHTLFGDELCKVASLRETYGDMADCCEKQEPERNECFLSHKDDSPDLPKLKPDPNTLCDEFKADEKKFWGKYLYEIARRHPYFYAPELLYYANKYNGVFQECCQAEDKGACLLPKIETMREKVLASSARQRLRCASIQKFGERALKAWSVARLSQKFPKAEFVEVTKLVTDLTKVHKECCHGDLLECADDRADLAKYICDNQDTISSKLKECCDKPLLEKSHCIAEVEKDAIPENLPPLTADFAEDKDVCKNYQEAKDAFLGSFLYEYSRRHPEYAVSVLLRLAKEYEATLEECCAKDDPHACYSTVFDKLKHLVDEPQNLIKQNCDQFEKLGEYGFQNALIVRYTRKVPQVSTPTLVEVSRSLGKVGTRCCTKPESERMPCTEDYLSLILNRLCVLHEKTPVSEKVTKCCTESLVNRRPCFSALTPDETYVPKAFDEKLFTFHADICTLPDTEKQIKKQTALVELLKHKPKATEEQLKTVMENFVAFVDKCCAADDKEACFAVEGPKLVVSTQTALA

fibroblasts = assay: Cell migration (wound healing) assay; format: cell-based, human; conditions: 24 h, IC50
Procedure: In the wound healing assay, a region without cells is generated, being then exposed to the compounds, and the cell migration is analyzed after 24 h, to determine the cells’ ability to proliferate and refill the gap previously formed (Figure 14).[116]
as §7, §8, §9, §10, §11, §12
Control solutions were also prepared, namely a
DMSO only. […] The UV-Vis spectra were […]

[7] = tested on: chick chorioallantoic membrane; assay: Ex ovo chick chorioallantoic membrane (CAM) assay, angiogenesis; format: in vivo, chicken; conditions: chick embryo CAM; for anti-/pro-angiogenic potential, newly formed blood vessels, 48 h: IC50, 48 h
Excerpt: The ex ovo CAM assay was used to evaluate the role of vanadium complexes in the process of angiogenesis. CAM is a chicken extraembryonic membrane and is often used to study the process of angiogenesis in vivo as it has a high density of blood and lymphatic vessels.[120] This assay consists of analyzing certain vascularized areas of the chorioallantoic membrane of a chicken embryo. Initially, o-rings are placed covering those membrane vascularized areas being then exposed to the complexes. Pictures are then taken at 0, 24, and 48 h after exposure to the complexes and the number of blood vessels present at each hour are counted and compared. The results can be observed in Figure 15.
Ex-ovo Chick Chorioallantoic Membrane (CAM) assay
The ex-ovo chorioallantoic membrane (CAM) assay was performed in order to evaluate the angiogenic potential of vanadium complexes, as already described in literature11–13. Firstly, chicken embryos were […]
concentration of each complex dissolved in PBS 1x was placed in the centre of O-rings. Beside each complex, DMSO 0.1% (v/v) was used as a control and complex distribution in chicken embryos was always performed in a different order. The embryos were incubated for 48 h at 37 °C and images were […]
Newly formed blood vessels were later manually counted, via ImageJ software.
The ex-ovo CAM assay fulfils the Directive 2010/63/ EU of the European Parliament for protection of animal models for scientific purposes.
All data are presented as Mean ± SEM from at least two independent experiments unless otherwise specified. One-way ANOVA or Student’s t-test were used to determine statistical significance (p < 0.05) using the GraphPad Prism 8 software (GraphPad Software, San Diego, CA, USA).

[8] = Stability and solubility in RPMI culture medium, UV-vis; format: physicochemical; conditions: UV-vis at 0, 24, 48 h
[9] = tested on: HCT116-DoxR (doxorubicin-resistant colorectal carcinoma cell line); assay: MTS cell viability assay, HCT116-DoxR;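 note: MTS colorimetric quantification of viable cells, with loss of viability tracked as complex concentration rises, in DMEM-grown HCT116-DoxR, a line whose resistance involves P-glycoprotein efflux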
Procedure: (§13) To assess the cytotoxicity of vanadium complexes in tumor and healthy cells, the MTS assay, a colorimetric method that allows the quantification of viable cells present in solution,[71] was performed.
Cell culture and maintenance
(§14) The A2780 cancer cell line (ovarian carcinoma) was purchased from Sigma-Aldrich (Madrid, Spain)
(§15) while HCT116 cancer cell line (colorectal carcinoma) and the normal human primary dermal
(§16) fibroblasts were obtained from American Type Culture Collection (ATCC®, Manassas, VA, USA).
(§17) HCT116 Dox-resistant cell line (HCT116-DoxR) was derived from HCT116 parental cells, as
(§18) All cells were cultured in Dulbecco’s modified Eagle medium (DMEM), except the A2780 cell line
(§19) which was cultured in RPMI (Roswell Park Memorial Institute) medium. Both media were
(§20) supplemented with 10% (v/v) fetal bovine serum (FBS) and 1% (v/v) of a Pen/Strep
(§21) (Penicillin/Streptomycin) solution. HCT116-DoxR cell medium was additionally supplemented with
(§22) All media and supplements were purchased from Thermo Fischer Scientific (Waltham, Massachusetts, USA).
(§23) (SANYO CO2 Incubator, Electric Biomedical Co., Osaka, Japan).
(§24) HCT116, HCT116-DoxR and A2780 cancer cell lines and normal human primary fibroblasts were
(§25) used in cellular viability assays. Cells were seeded in a density of 0.75×10^5 cells/mL into 96 well-
(§26) After the 24 h of incubation, complexes were
(§27) weight and immediately solubilized in 100% (v/v) DMSO and then, diluted for the final concentration
(§28) with cell culture medium. The medium in each 96 well-plates will be replaced by fresh medium
(§29) containing each vanadium complex (concentrations ranging from 0.01 µM to 50 µM). Culture medium
(§30) with 0.1% (v/v) DMSO and 0.4 µM Dox were used as negative and positive controls, respectively.

[10] = tested on: normal human primary dermal fibroblasts; assay: MTS cell viability assay, fibroblasts; conditions: read-out: IC50 fibroblasts; 48 h of exposure, MTS, mean ± SEM
Procedure: as §13
Cell culture and maintenance
as §14, §15, §16, §17, §18, §19, §20, §21, §22, §23, §24, §25, §26, §27, §28, §29, §30

HCT116-DoxR cells [11] = assay: Cell cycle progression, PI, flow cytometry; conditions: HCT116-DoxR, 3, 9, 24, 32 h; complexes at IC50, cisplatin 5 μM, Dox 6 μM
HCT116-DoxR cells [12] = assay: Autophagy induction, Green Detection Reagent, flow cytometry; conditions: 48 h, complexes at IC50, cisplatin 5 μM, Dox 6 μM
[13] = n-octanol/PBS buffer partition coefficient, shake-flask, UV-vis; conditions: room temperature
Procedure: The lipophilicity of V(IV) complexes was investigated using the classical shake-flash method at room temperature in the two-phase system of immiscible solvents n-octanol/PBS buffer.[69],[70] The transfer of V(IV) compounds from the aqueous environment to the organic phase was monitored by UV–vis spectroscopy.
The n-octanol/PBS buffer partition coefficients (logP) were determined by shake-flash approach, and
the transfer of V(IV) compounds from the aqueous environment to the organic phase was monitored
by UV-Vis spectroscopy5,6. Solutions of 1–10 of concentrations in the range 10-100 M were prepared
in PBS buffer saturated with n-octanol from the freshly-prepared stock solution in DMSO (5mM or 50
mM), and their UV-Vis spectra were recorded. The solution of 1–10 in aqueous buffer (3 ml) were
mixed with n-octanol saturated with pH 7.4 aqueous buffer (3 ml), and the obtained mixtures were
stirred in a mechanical shaker for 30 min. The mixtures were allowed to stand at room temperature for
24 h, and after this time, the aqueous phases were separated, and the concentrations of 1–10 were
determined by measuring their UV-Vis spectra. For each complex, the highest energy absorption band was taken into consideration to determine the sample concentration.

HCT116-DoxR cells [14] = assay: Mitochondrial membrane potential, JC-1, flow cytometry; format: cell-based, human; conditions: 48 h, complexes at IC50, cisplatin 5 μM, Dox 6 μM
Excerpt: The use of the fluorescent probe JC-1 (5,5,6,6′-tetrachloro-1,1′,3,3′ tetraethylbenzimidazolcarbocyanine iodide) allows the evaluation of ΔΨm, as the aggregation of the probe changes whether the mitochondrial membrane is hyperpolarized or depolarized.[95],[96] In healthy cells with high mitochondrial potential, JC-1 enters and accumulates inside mitochondria, where it forms complexes known as J-aggregates, emitting red fluorescence. However, in cells with a loss of ΔΨm, JC-1 is unable to remain in the mitochondria and exits to the cytoplasm, accumulating in its monomeric form and emitting green fluorescence. Thus, the ratio of the red/green fluorescence intensities can be used to indicate polarization (ratio > 1) or depolarization (ratio < 1) of the mitochondrial membrane (Figure 7).[94],[95]
as §1, §2, §3, §4, §5, §6

[15] = read-out: IC50 2D, HCT116-DoxR 2D culture, 48 h
[16] = read-out: IC50 HCT116-DoxR, 48 h of exposure, MTS, mean ± SEM

Structure (SMILES) | IC50 [1] [µM] | IC50 [2] [µM] | IC50 (HCT116-DoxR spheroids) [µM] | Concentration in cells (HCT116-DoxR cells [3]) [µM] | increase of percentage of apoptotic cells normalized to DMSO (HCT116-DoxR cells [4]) [fold] | early apoptosis (HCT116-DoxR cells [4]) [%] | late apoptosis (HCT116-DoxR cells [4]) [%] | necrosis (HCT116-DoxR cells [4]) [%] | percentage of apoptosis (total) (HCT116-DoxR cells [4]) | viable cells (HCT116-DoxR cells [4]) [%] | caspase-8 activity vs 0.1% DMSO (caspase-8) | ROS production, increase over the DMSO control (HCT116-DoxR cells [5]) [fold] | BSA fluorescence with increasing complex concentrations [6] | interaction with BSA protein [6] | cell migration (wound remission) (fibroblasts) | anti-/pro-angiogenic potential, newly formed blood vessels, 48 h [7] | stability in RPMI culture medium [8] | IC50 [9, 15] [µM] | IC50 [9, 16] [µM] | IC50 [10] [µM] | other results
COc1ccnc2c1ccc1c(OC)ccnc12.O=C1[O][V](=[O])[O]C(=O)c2cccc1n2 [complex 5, [VO(dipic)(4,7-(CH3O)2-phen)]] | 1.8 ± 0.04 | 1.3 ± 0.01 | 3.5 ± 0.2 | 1.590 | 2.5 | 59.4 ± 3.6 | 11.5 ± 5.0 | 0.8 ± 0.6 | about 70% | 28.3 ± 3.5 | higher level of caspase-8 | 2.5 | high decrease in BSA fluorescence | capable of interacting | do not promote cell migration | no anti-/pro-angiogenic potential | no structural changes | 0.2 ± 0.1 | 0.2 ± 0.1 | 3.1 ± 0.07 | Internalized percentage (HCT116-DoxR cells [3]): 98.55% and ~100%; BAX/BCL-2 ratio normalized to DMSO control (BAX): ~1; BAX protein expression vs DMSO control (BAX): increased expression; BCL-2 protein expression vs DMSO control (BCL-2): increased expression; increase in expression of cleaved PARP1 vs 0.1% DMSO (cleaved PARP1): 5 fold; cell cycle arrest / cytostatic effect (HCT116-DoxR cells [11]): no cell cycle arrest; increase of autophagic vesicles over the control (HCT116-DoxR cells [12]): ~2.3 fold; log P [13]: 0.55
O=C1[O][V](=[O])[O]C(=O)c2cccc1n2.c1ccc(-c2ccnc3c2ccc2c(-c4ccccc4)ccnc23)cc1 [complex 6, [VO(dipic)(4,7-Ph2-phen)]] | 0.9 ± 0.03 | 0.2 ± 0.09 | 3.1 ± 0.42 | 1.672 | 2.5 | 57.7 ± 5.8 | 13.4 ± 5.9 | 1.2 ± 0.9 | about 70% | 27.7 ± 7.9 | not detected | 2.6 | high decrease in BSA fluorescence | capable of interacting | do not promote cell migration | no longer present; also recorded: no anti-/pro-angiogenic potential | no spectral changes over time | 0.2 ± 0.05 | 0.2 ± 0.05 | 4 ± 0.05 | Internalized percentage (HCT116-DoxR cells [3]): 98.32% and ~100%; BAX/BCL-2 ratio normalized to DMSO control (BAX): ~3; BAX protein expression vs DMSO control (BAX): increase; BCL-2 protein expression vs DMSO control (BCL-2): decrease; increase in expression of cleaved PARP1 vs 0.1% DMSO (cleaved PARP1): 8 fold; JC-1 red/green fluorescence intensity ratio normalized to DMSO (HCT116-DoxR cells [14]): ~0.69; anti-angiogenic potential, newly formed blood vessels, 24 h ([7]; IC50, 24 h): some anti-angiogenic potential; solubility in RPMI culture medium over time [8]: loss of solubility over time; cell cycle arrest / cytostatic effect (HCT116-DoxR cells [11]): no cell cycle arrest; increase of autophagic vesicles over the control (HCT116-DoxR cells [12]): ~2.3 fold; log P [13]: 0.57
O=C1[O][V](=[O])[O]C(=O)c2cccc1n2.c1cnc2c(c1)ccc1cccnc12 [complex 8, [VO(dipic)(phen)]] | 3.7 ± 0.01 | 2.1 ± 0.03 | 11.7 ± 0.62 | 6.705 | 1.7 | 44.8 ± 6.2 | 4.5 ± 2.1 | 0.9 ± 0.6 | about 50% | 49.8 ± 6.0 | higher level of caspase-8 | 2.4 | high decrease in BSA fluorescence | capable of interacting | do not promote cell migration | no anti-/pro-angiogenic potential | no spectral changes over time | 1.3 ± 0.04 | 1.3 ± 0.04 | 8.6 ± 0.02 | increase of autophagic vesicles over the control (HCT116-DoxR cells [12]): ~2.3 fold; log P [13]: 0.40

— article PMC10350923, “In Vitro and In Vivo Biological Activities of Dipicolinate Oxovanadium(IV) Complexes” (Journal of Medicinal Chemistry, 2023)
